Test results reported in patent US7956039B2, “Use of amygdalin analogues for the treatment of psoriasis” (Universitat Politècnica De Catalunya, priority 2004, dated 2011).

What was measured:
Blood mononuclear cells = assay: Monocyte chemotaxis assay in modified Boyden chamber; assay type: cell-based, human; settings: for −log[A] (concentration of maximum chemotactic index): concentration [A] at which the maximum chemotactic index occurs; for Chemotactic index (maximum value): ratio of migration distance towards attractant to distance towards buffer, tested 10^−12 to 10^−7 mol/L
Experimental: Activity of Compounds (I) in Monocyte Chemotaxis Assays
Blood mononuclear cells were isolated from heparinized blood of human volunteers by Ficoll sedimentation. Chemotaxis was measured in a modified Boyden chamber using a Millipore […] that divided the upper and lower compartments. Mononuclear cells (0.5×10^6) in Krebs-Ringer phosphate (KRP) buffer were placed into the upper wells. Compounds (I) were dissolved in DMSO at 10^−2 mol/L, diluted with KRP buffer containing 1 mg/mL of bovine serum albumin and tested in the bottom compartment at a final concentration ranging from 10^−12 to 10^−7 mol/L. For an accurate comparison, the results of the different analogues were expressed as chemotactic index, which is the ratio of the distance of migration towards tested attractant and the distance towards the buffer. Migration in the presence of buffer was only […] (mean±SEM). Maximum migration for CHO-Met-Leu-Phe-OH (FMLP) occurred at 10^−8 mol/L and was […] in these experiments (chemotactic index 1.94±0.03). CD4 receptor binding for the test analogues was confirmed by blocking their chemotactic effects using low concentrations (0.1-0.2 mg/mL) of OKT4, a specific monoclonal antibody for CD4 molecules. In this test, migration response was not influenced by OKT4.

monocytes = settings: cited from earlier work

CCC(O[C@@H]1O[C@H](CO[C@@H]2O[C@H](CO)[C@@H](O)[C@H](O)[C@H]2O)[C@@H](O)[C@H](O)[C@H]1O)c1ccccc1 (mixture of isomers) [Compound (I-4), (1 RS)-1-phenylpropyl 6-O-(β-D-glucopyranosyl)-β-D-glucopyranoside]
−log[A] (concentration of maximum chemotactic index) (Blood mononuclear cells): 6 | Chemotactic index (maximum value) (Blood mononuclear cells): 0.75

CC(C)(C)C(O[C@@H]1O[C@H](CO[C@@H]2O[C@H](CO)[C@@H](O)[C@H](O)[C@H]2O)[C@@H](O)[C@H](O)[C@H]1O)c1ccccc1 (mixture of isomers) [Compound (I-5), (1RS) 1-phenyl-2,2-dimethylpropyl-6-O-(β-D-glucopyranosyl)-β-D-glucopyranoside]
−log[A] (concentration of maximum chemotactic index) (Blood mononuclear cells): 9 | Chemotactic index (maximum value) (Blood mononuclear cells): 0.84

N#C[C@H](O[C@@H]1O[C@H](CO[C@@H]2O[C@H](CO)[C@@H](O)[C@H](O)[C@H]2O)[C@@H](O)[C@H](O)[C@H]1O)c1ccccc1 [Amygdalin, amygdalin]
−log[A] (concentration of maximum chemotactic index) (Blood mononuclear cells): 10 | Chemotactic index (maximum value) (Blood mononuclear cells): 0.63 | Chemotactic profile compared with peptide T (monocytes): chemotactic profile similar to that of peptide T

COc1ccc(CO[C@@H]2O[C@H](CO[C@@H]3O[C@H](CO)[C@@H](O)[C@H](O)[C@H]3O)[C@@H](O)[C@H](O)[C@H]2O)cc1 [Compound (I-1), 4-methoxybenzyl 6-O-(β-D-glucopyranosyl)-β-D-Glucopyranoside]
−log[A] (concentration of maximum chemotactic index) (Blood mononuclear cells): 10 | Chemotactic index (maximum value) (Blood mononuclear cells): 0.87

OC[C@H]1O[C@@H](OC[C@H]2O[C@@H](OCc3ccccc3)[C@H](O)[C@@H](O)[C@@H]2O)[C@H](O)[C@@H](O)[C@@H]1O [Compound (I-2), benzyl 6-O-(β-D-glucopyranosyl)4-D-glycopyranoside]
−log[A] (concentration of maximum chemotactic index) (Blood mononuclear cells): 8 | Chemotactic index (maximum value) (Blood mononuclear cells): 0.76

CC(O[C@@H]1O[C@H](CO[C@@H]2O[C@H](CO)[C@@H](O)[C@H](O)[C@H]2O)[C@@H](O)[C@H](O)[C@H]1O)c1ccccc1 (stereo partly drawn) [Compound (I-3), (1 RS)-1-phenylethyl-6-O-(β-D-glucopyranosyl)-β-D-glucopyranoside]
−log[A] (concentration of maximum chemotactic index) (Blood mononuclear cells): 8 | Chemotactic index (maximum value) (Blood mononuclear cells): 0.77

O=C(O)[C@H](O[C@@H]1O[C@H](CO[C@@H]2O[C@H](CO)[C@@H](O)[C@H](O)[C@H]2O)[C@@H](O)[C@H](O)[C@H]1O)c1ccccc1 [Compound (I-6), (2R) (6-O-(β-D-glucopyranosyl)-β-D-glucopyranosyloxy)-phenylacetic acid]
−log[A] (concentration of maximum chemotactic index) (Blood mononuclear cells): 9 | Chemotactic index (maximum value) (Blood mononuclear cells): 0.85

NC(=O)[C@H](O[C@@H]1O[C@H](CO[C@@H]2O[C@H](CO)[C@@H](O)[C@H](O)[C@H]2O)[C@@H](O)[C@H](O)[C@H]1O)c1ccccc1 [Compound (I-7)]
−log[A] (concentration of maximum chemotactic index) (Blood mononuclear cells): 7 | Chemotactic index (maximum value) (Blood mononuclear cells): 0.84

C#CC(O[C@@H]1O[C@H](CO[C@@H]2O[C@H](CO)[C@@H](O)[C@H](O)[C@H]2O)[C@@H](O)[C@H](O)[C@H]1O)c1ccccc1 (stereo partly drawn) [Compound (I-8), (1 RS) 1-phenyl-2-propynyl-6-O-(β-D-Glucopyranosyl)-β-D-glucopyranoside]
−log[A] (concentration of maximum chemotactic index) (Blood mononuclear cells): 6 | Chemotactic index (maximum value) (Blood mononuclear cells): 0.79

OC[C@H]1O[C@@H](OC[C@H]2O[C@@H](OCc3ccccc3Cl)[C@H](O)[C@@H](O)[C@@H]2O)[C@H](O)[C@@H](O)[C@@H]1O [Compound (I-10), 2-chlorobenzyl 6-O-(β-D-gluconyranosyl)-β-D-Glucopyranoside]
−log[A] (concentration of maximum chemotactic index) (Blood mononuclear cells): 10 | Chemotactic index (maximum value) (Blood mononuclear cells): 0.94

COc1ccc(CO[C@@H]2O[C@H](CO[C@@H]3O[C@H](CO)[C@@H](O)[C@H](O)[C@H]3O)[C@@H](O)[C@H](O)[C@H]2O)c(OC)c1 [Compound (I-11), 2.4-dimethoxybenzyl 6-O-(β-D-glucopyranosyl)-β-D-glucopyranoside]
−log[A] (concentration of maximum chemotactic index) (Blood mononuclear cells): 10 | Chemotactic index (maximum value) (Blood mononuclear cells): 0.84

OC[C@H]1O[C@@H](OC[C@H]2O[C@@H](OCCc3ccccc3)[C@H](O)[C@@H](O)[C@@H]2O)[C@H](O)[C@@H](O)[C@@H]1O [Compound (I-17), 2-phenylethyl 6-O-(β-D-glucopyranosyl)-β-D-glucopyranoside]
−log[A] (concentration of maximum chemotactic index) (Blood mononuclear cells): 9 | Chemotactic index (maximum value) (Blood mononuclear cells): 0.70

CHO-Met-Leu-Phe-OH [FMLP, reference compound]
Concentration of maximum migration (Blood mononuclear cells): 10^−8 mol/L | Chemotactic index (Blood mononuclear cells; at maximum migration, 10^−8 mol/L): 1.94±0.03
